The assay concerns scalp fragments. Nature of the assay: Example 4: cell proliferation (anti-Ki67 immunohistochemistry) in root and outer epithelial sheath of scalp fragments kept in survival. In kind it is cell-based, human. To be noted: N = 6, 48 hours. As to the method: The aim of the present study is to identify the effectiveness of a CNB according to the invention and according to Table 2, on the stimulation of the root. The cell proliferation, using the anti-Ki67 antibody, was evaluated in the matrix zone of the root (growth zone of the stem), but also in the outer epithelial sheath of the follicle.
Scalp fragments from 6 different donors (cervico-facial lift of a non-alopecia subject) were deposited in inserts, themselves positioned on culture wells.
Containing no preservative, antibiotics were added to all these tested media (fungizone, gentamycin). They were added daily to the bottom of the wells, a passage taking place by slow diffusion between the two compartments via a porous membrane (12 μm).
The scalp fragments were kept in survival in a stove at 37° C. and in an air/5% CO2 atmosphere for 48 hours.
The scalp fragments were fixed in Bouin's liquid and set in paraffin.
The immunohistochemical evaluation of proliferation was carried out in the root and in the outer epithelial sheath surrounding the hair. This outer sheath is histologically considered as the prolongation of the surface epidermis.
Epithelial proliferation was analyzed by immunohistochemistry using an anti-Ki67 antibody (for labelling cells M, S, G1 and G2 of the cell cycle). Immunodetection was carried out using an indirect immunoperoxidase technique in 3 layers, amplified by (DAKO kit) and developed in AEC.
The number of labelled cells of the outer epithelial sheath was counted between the origin of the sebaceous glands and the beginning of the root zone. Furthermore, the labelled matrix cells in the roots were also counted. The percentage of cells undergoing proliferation was thereby calculated compared to the unlabelled cells.
Statistical analysis was carried out by the Student's test of the reduced deviation or paired samples test. The significant threshold was set at 5%.

“And” between values parts separate entries of the source, which are not always exact repeats. Equal values may be shown once.

With `Nc1cc(N2CCCCC2)nc(N)[n+]1[O-]` [Minoxidil], the “% of labelled cells (anti-Ki67) in the outer epithelial sheath of the follicles” value is 10.2% and 10.2 ± 5% (Minoxidil 0.01% in PBS); 17.6% and 17.6 ± 7 % (Minoxidil 2% in PBS). Also, the “% of labelled matrix cells (anti-Ki67) in the root of the hair follicle” value (Minoxidil 0.01% in PBS) is 4.2% and 4.2 ± 2.45%; the “% of labelled matrix cells (anti-Ki67) in the root of the hair follicle” value (Minoxidil 2% in PBS) was 11.60% and 11.6 ± 8.7%.

(Values after patent US7820148B2, “Use of a complex nutritional base in cosmetics, in particular for the hair” (priority 2004, dated 2010).)
